Assay results taken from patent publication US6600057B2, “Matrix metalloproteinase inhibitors” (Kimberly-Clark Worldwide, Inc., priority 2000, dated 2003).

Molecular target: MMP-9 (Homo sapiens, UniProt P14780)
Experiment: Fluorometric assay of MMP-9 inhibition (cleavage of a fluorogenic peptide substrate)
Type: biochemical
Details: incubated 30 minutes at room temperature
Procedure: The second assay utilized the technique of fluorescence resonance energy transfer (FRET). The substrate peptide (Calbiochem) comprised seven amino acids coupled to a carboxyl terminal dinitrophenyl acceptor, and an amino terminal 2-aminobenzo-anthraniloyl (Abz) moiety donor. Cleavage of this substrate by MMP-9 results in the liberation of a fluorescent product (365 nm excitation, 450 nm emission). […] MMP at a concentration of 0.5 μM was mixed with varying amounts of compound and incubated at 25° C. for 10 minutes in order to effect binding. The protein mixture was added to the peptide substrate, and was quickly mixed. Fluorescence intensity as a function of time was measured with a Dynex MFX fluorescence microtiter plate reader. Fluorescence intensity was related back to moles of peptide cleaved by producing a standard curve with an Abz containing non-FRET peptide. Inhibitory constants were derived from the curves as above. (Segel, IH. (1993) Enzyme Kinetics: Behavior and analysis of rapid equilibrium and steady-state enzyme systems. Wiley Classics Library, John Wiley and Sons, Inc. New York.)
The inhibition of MMP-9 by AQCA was measured by fluorometric assay. The fluorometric assay measures the cleavage of a fluorogenic peptide substrate (excitation wavelength 355 nm, emission wavelength 455 nm). MMP-9 is incubated with 0 mM AQCA (open circles), 1 mM AQCA (closed circles); or 2 mM AQCA (closed squares) for 30 minutes at room temperature. Fluorescence is measured at the times (in minutes) indicated.
Inhibition of MMP-9. Fluorometric assay which measures the cleavage of a fluorogenic peptide substrate (excitation wavelength 355 nm, emission wavelength 455 nm). […] Fluorescence is measured at the times (in minutes) indicated.
The inhibition of MMP-9 by anthraquinyl-mercaptoethylamine was measured by fluorometric assay. […] Fluorescence is measured at the times (in minutes) indicated.
The inhibition of MMP-9 by anthraquinyl alanine hyroxamate was measured by fluorometric assay. […] Fluorescence is measured at the times (in minutes) indicated.

[1] = 0.25 mM compound, FIG. 3 and FIG. 4

Chain of MMP-9 (P14780 94-707, species assumed): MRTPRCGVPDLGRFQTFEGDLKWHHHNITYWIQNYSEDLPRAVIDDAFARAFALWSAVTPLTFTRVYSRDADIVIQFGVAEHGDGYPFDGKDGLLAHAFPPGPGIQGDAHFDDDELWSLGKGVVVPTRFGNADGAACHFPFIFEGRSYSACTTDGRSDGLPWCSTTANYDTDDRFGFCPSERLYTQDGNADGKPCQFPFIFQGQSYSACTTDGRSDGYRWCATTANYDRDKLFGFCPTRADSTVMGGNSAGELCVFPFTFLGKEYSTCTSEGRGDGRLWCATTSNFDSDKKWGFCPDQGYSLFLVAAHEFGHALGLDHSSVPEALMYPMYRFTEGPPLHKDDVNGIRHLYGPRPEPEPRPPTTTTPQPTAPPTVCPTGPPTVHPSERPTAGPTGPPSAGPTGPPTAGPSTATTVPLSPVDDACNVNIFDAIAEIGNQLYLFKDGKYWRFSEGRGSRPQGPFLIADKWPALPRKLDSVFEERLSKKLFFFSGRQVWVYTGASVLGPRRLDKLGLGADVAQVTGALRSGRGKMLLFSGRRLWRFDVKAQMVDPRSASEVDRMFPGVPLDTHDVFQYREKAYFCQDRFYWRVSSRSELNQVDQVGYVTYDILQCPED

SMILES	inhibition of the enzymatic activity of MMP-9 (1 mM or 2 mM AQCA, FIG. 2)	inhibition of the enzymatic activity of MMP-9 [1]
O=C(O)c1cc(O)c2c(c1)C(=O)c1cccc(O)c1C2=O [AQCA, 4,5-dihydroxyanthaquinone-2-carboxylic acid]	inhibited the enzymatic activity of MMP-9 in a dose dependent manner	–
CC(NC(=O)c1cc(O)c2c(c1)C(=O)c1cccc(O)c1C2=O)C(=O)NO (stereo not drawn) [anthraquinyl alanine hyroxamate, anthraquinyl-alanine hydroxamate]	–	inhibited the enzymatic activity of MMP-9
O=C(NCCS)c1cc(O)c2c(c1)C(=O)c1cccc(O)c1C2=O [anthraquinyl mercaptoethylamine, anthraquinyl-mercaptoethyamine]	–	inhibited the enzymatic activity of MMP-9
